Consider 28 compounds from ChEMBL document CHEMBL1155535, “Synthesis and biological evaluation of tricyclic anilinopyrimidines as IKKbeta inhibitors” (Bioorg Med Chem Lett, 2010).

Converted amounts (≈) assume the structure as drawn.

A short description of data set [1]: Membrane permeability by PAMPA assay. A general note: The PAMPA barrier holds no transporters, so it reflects passive diffusion.
A short description of data set [2]: Aqueous solubility in at pH 7.4.
The target in data set [3] is T1, Inhibitor of nuclear factor kappa-B kinase subunit beta (Homo sapiens, UniProt O14920).
T1 sequence (O14920 whole entry): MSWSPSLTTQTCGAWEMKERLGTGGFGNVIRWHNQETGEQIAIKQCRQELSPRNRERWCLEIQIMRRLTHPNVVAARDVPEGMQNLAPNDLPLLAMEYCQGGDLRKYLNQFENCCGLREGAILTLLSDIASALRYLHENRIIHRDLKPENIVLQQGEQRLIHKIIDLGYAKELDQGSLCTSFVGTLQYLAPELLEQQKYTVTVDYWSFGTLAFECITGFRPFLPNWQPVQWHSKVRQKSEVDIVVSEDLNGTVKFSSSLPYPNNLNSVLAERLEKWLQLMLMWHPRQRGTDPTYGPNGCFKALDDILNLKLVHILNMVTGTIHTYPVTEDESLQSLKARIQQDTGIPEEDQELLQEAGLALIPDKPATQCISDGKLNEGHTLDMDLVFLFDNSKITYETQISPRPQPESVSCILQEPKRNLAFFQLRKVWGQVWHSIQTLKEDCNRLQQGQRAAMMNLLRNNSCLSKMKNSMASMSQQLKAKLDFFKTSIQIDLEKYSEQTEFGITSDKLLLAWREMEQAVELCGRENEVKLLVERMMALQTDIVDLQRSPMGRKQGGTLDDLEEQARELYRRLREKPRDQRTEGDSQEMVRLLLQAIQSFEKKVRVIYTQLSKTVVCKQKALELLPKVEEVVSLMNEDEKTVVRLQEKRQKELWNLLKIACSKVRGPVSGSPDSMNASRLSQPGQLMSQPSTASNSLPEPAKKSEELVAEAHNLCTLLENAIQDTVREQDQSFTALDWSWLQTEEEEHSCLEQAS
The data set can be described thus: Inhibition of IKK-beta expressed in human HeLa cells transfected with pNFkappaB-luciferase assessed inhibition of TNF-alpha-induced NF-kappaB expression by luciferase reporter gene assay. In kind it is cell-based. On the technique in general: A reporter such as luciferase makes a cellular process visible.

A further data set has as its system LoVo. The data set is described as follows: Cytotoxicity against human LoVo cells assessed as growth inhibition. The class given is functional, cell-based.
For data set [4], the target named is T1, Inhibitor of nuclear factor kappa-B kinase subunit beta. The data set is described as follows: Inhibition of FLAG-tagged IKK-beta after 30 mins.
Data set [5] in a line: Apparent permeability from apical to basolateral side in human Caco-2 cells. (In general: Caco-2 cells form a polarised layer with tight junctions and transporters.)
Data set [6] can be described thus: Apparent permeability from basolateral to apical side in human Caco-2 cells.

The term Papp denotes a coefficient for how fast a substance crosses the barrier. A higher Papp goes with fast passage. In general, solubility refers to the concentration that dissolves in the medium under given conditions. A low value points to little dissolved substance. The term IC50 denotes the concentration needed to halve the response being measured. What is called Papp A→B is how fast a substance crosses the layer from the apical side. Broadly, the Papp B→A is the apparent permeability from the basolateral to the apical side of a cell layer.

In data set [1], `NS(=O)(=O)c1ccc(Nc2ncc3c(n2)-c2ccccc2CC3)cc1` came in with an apparent permeability (Papp) of 2.92 ×10⁻⁶ cm/s. The same compound had a solubility in data set [2] of 7 µg/mL (≈ 19.9 µM). In addition, the concentration for half-maximal inhibition (IC50) was 1.43 µM in data set [3], 1.05 µM with LoVo and 1.83 µM in data set [4].

On to `Cc1ccc(-c2ccnc(Nc3ccc(S(N)(=O)=O)cc3)n2)s1`, for which, in data set [2], the concentration in solution (solubility) came to 3 µg/mL (≈ 8.66 µM). The IC50 was 1.71 µM in data set [3], 1.66 µM in the data set with LoVo and 0.019 µM in data set [4].

Turning to `NS(=O)(=O)c1ccc(Nc2ncc3c(n2)-c2ccccc2CCC3)cc1`, the values for the 50% inhibitory concentration (IC50) (in data set [3]; with LoVo) were 4.06 µM and 4.18 µM, respectively.

As to `COC(=O)CC(=O)Nc1ccc2c(c1)CCc1cnc(Nc3ccc(S(N)(=O)=O)cc3)nc1-2`, the values for the IC50 (in the data set on LoVo; in data set [4]) were 0.62 µM and 0.28 µM, respectively.

`NS(=O)(=O)c1ccc(Nc2ncc3c(n2)-c2ccc(NC(=O)Cc4ccsc4)cc2CC3)cc1`: the 50% inhibitory concentration (IC50) in data set [3] amounted to 0.97 µM; with LoVo it was 0.49 µM; in data set [4] it was 0.31 µM.

For `COc1ccc(CC(=O)Nc2ccc3c(c2)CCc2cnc(Nc4ccc(S(N)(=O)=O)cc4)nc2-3)cc1`, the IC50 in data set [3] stood at 1.6 µM; in the data set with LoVo it was 0.73 µM; in data set [4] it was 1.83 µM.

Compound `NS(=O)(=O)c1ccc(Nc2nccc(-c3ccc(NC(=O)Cc4ccccc4)cc3)n2)cc1` returned an apparent permeability coefficient (Papp) in data set [1] of less than 0.01 ×10⁻⁶ cm/s. In data set [2], this compound came in with a solubility of 1 µg/mL (≈ 2.18 µM). The IC50 in data set [3] worked out at 4.47 µM; in the data set on LoVo, 0.18 µM; in data set [4] it was 0.05 µM.

The compound `CC(C)(C)CC(=O)Nc1ccc(-c2ccnc(Nc3ccc(S(N)(=O)=O)cc3)n2)cc1` yielded an apparent permeability (Papp) in data set [1] of 0.6 ×10⁻⁶ cm/s. The same compound displayed a solubility in data set [2] of less than 1 µg/mL. Also, the IC50 in data set [3] was 2.46 µM; with LoVo it was 0.79 µM; in data set [4] it was 0.01 µM.

For `NS(=O)(=O)c1ccc(Nc2ncc3c(n2)-c2ccc(NC(=O)Cc4cccs4)cc2CC3)cc1`, the Papp in data set [1] came to 0.51 ×10⁻⁶ cm/s. For the same compound, the solubility in data set [2] amounted to 6 µg/mL (≈ 12.2 µM). For the same compound, the figures for the IC50 (in data set [3]; with LoVo; in data set [4]) were 0.83 µM, 0.29 µM and 0.51 µM, respectively.

`CN(C)CCNS(=O)(=O)c1ccc(Nc2ncc3c(n2)-c2ccsc2CC3)cc1` registered a Papp in data set [1] of 1.54 ×10⁻⁶ cm/s. In data set [2], this compound displayed a solubility of 36 µg/mL (≈ 83.8 µM). For the same compound, in data set [5], the apparent permeability from apical to basolateral (Papp A→B) is less than 1 ×10⁻⁶ cm/s. For the same compound, the 50% inhibitory concentration (IC50) in data set [3] worked out at 0.51 µM; in the data set on LoVo it was 0.68 µM; in data set [4] it was 0.77 µM. Further, in data set [6], the Papp B→A was found to be 3.08 ×10⁻⁶ cm/s.

With `O=S(=O)(NCCO)c1ccc(Nc2ncc3c(n2)-c2ccsc2CC3)cc1`, the figures for the IC50 (in data set [3]; in the data set on LoVo; in data set [4]) were 1.96 µM, 0.8 µM and 1.22 µM, respectively.

Regarding `O=S(=O)(NCCO)c1ccc(Nc2nccc(-c3ccsc3)n2)cc1`, the results for the IC50 (in data set [3]; with LoVo; in data set [4]) were 3.39 µM, 4.11 µM and 0.13 µM, respectively.

Consider `CN(C)CCCNS(=O)(=O)c1ccc(Nc2nccc(-c3ccsc3)n2)cc1`, for which the IC50 in data set [3] was 1.06 µM; in the data set on LoVo, 3.38 µM; in data set [4], 0.17 µM.

With `CC(C)C(=O)Nc1ccc2c(c1)CCc1cnc(Nc3ccc(S(N)(=O)=O)cc3)nc1-2`, the IC50 came out at 1.46 µM in data set [3], 0.66 µM with LoVo and 1.11 µM in data set [4].

As to `COc1ccc(-c2ccnc(Nc3ccc(S(N)(=O)=O)cc3)n2)cc1`, the Papp in data set [1] was less than 0.01 ×10⁻⁶ cm/s. Moreover, the solubility in data set [2] was 2.3 µg/mL (≈ 6.45 µM). In addition, the results for the IC50 (in data set [3]; with LoVo; in data set [4]) were 0.64 µM, 2.55 µM and 0.04 µM, respectively.

Take `CC(C)=CC(=O)Nc1ccc2c(c1)CCc1cnc(Nc3ccc(S(N)(=O)=O)cc3)nc1-2`: the values for the half-inhibitory concentration (IC50) (in data set [3]; with LoVo; in data set [4]) were 8.25 µM, 0.56 µM and 1.59 µM, respectively.

In the case of `NS(=O)(=O)c1ccc(Nc2ncc3c(n2)-c2ccc(NC(=O)Cc4ccccc4)cc2CC3)cc1`, the apparent permeability coefficient (Papp) in data set [1] amounted to 3.37 ×10⁻⁶ cm/s. This compound came in with a solubility in data set [2] of 9 µg/mL (≈ 18.5 µM). The IC50 is 1.79 µM in data set [3], 0.19 µM in the data set with LoVo and 2.38 µM in data set [4].

As for `COc1ccc2c(c1)CCc1cnc(Nc3ccc(S(N)(=O)=O)cc3)nc1-2`, in data set [1], the Papp stood at 1.8 ×10⁻⁶ cm/s. Further, in data set [2], the solubility is less than 1 µg/mL. Moreover, the results for the concentration for half-maximal inhibition (IC50) (in data set [3]; in the data set on LoVo; in data set [4]) were 0.42 µM, 0.75 µM and 0.55 µM, respectively.

For the compound `NS(=O)(=O)c1ccc(Nc2ncc3c(n2)-c2ccc(NC(=O)c4ccco4)cc2CC3)cc1`, the IC50 with LoVo was determined as 1.06 µM; in data set [4], 2.23 µM.

`NS(=O)(=O)c1ccc(Nc2ncc3c(n2)-c2ccc(NC(=O)C4CCCC4)cc2CC3)cc1`: the IC50 worked out at 1.57 µM in data set [3], 0.83 µM with LoVo and 2.2 µM in data set [4].

`CN(C)CCNS(=O)(=O)c1ccc(Nc2nccc(-c3ccsc3)n2)cc1` registered a Papp in data set [1] of 2.4 ×10⁻⁶ cm/s. For the same compound, in data set [2], the solubility is more than 100 µg/mL. Besides, in data set [5], the Papp A→B was less than 1 ×10⁻⁶ cm/s. In addition, the figures for the IC50 (in data set [3]; in the data set with LoVo; in data set [4]) were 0.77 µM, 2.81 µM and 0.23 µM, respectively. In data set [6], the Papp B→A came out at 13.2 ×10⁻⁶ cm/s.

In the case of `CC(C)CC(=O)Nc1ccc2c(c1)CCc1cnc(Nc3ccc(S(N)(=O)=O)cc3)nc1-2`, the IC50 came out at 6.4 µM in data set [3], 0.38 µM in the data set on LoVo and 1.94 µM in data set [4].

In turn, `CC(C)(C)CC(=O)Nc1ccc2c(c1)CCc1cnc(Nc3ccc(S(N)(=O)=O)cc3)nc1-2` returned an apparent permeability (Papp) in data set [1] of 2.3 ×10⁻⁶ cm/s. In addition, in data set [2], the concentration in solution (solubility) came to 9 µg/mL (≈ 19.3 µM). In addition, the IC50 in data set [3] came to 1.36 µM; in the data set on LoVo, 0.37 µM; in data set [4], 0.82 µM.

Take `CN(C)CCCNS(=O)(=O)c1ccc(Nc2ncc3c(n2)-c2ccsc2CC3)cc1`: the figures for the IC50 (in data set [3]; in the data set on LoVo; in data set [4]) were 0.62 µM, 1.1 µM and 0.78 µM, respectively.

In data set [1], `NS(=O)(=O)c1ccc(Nc2nccc(-c3ccc(NC(=O)Cc4cccs4)cc3)n2)cc1` registered a Papp of 0.3 ×10⁻⁶ cm/s. This compound returned a solubility in data set [2] of less than 1 µg/mL. The results for the concentration for half-maximal inhibition (IC50) (in data set [3]; with LoVo; in data set [4]) were 6.91 µM, 0.25 µM and 0.02 µM, respectively.

Consider `NS(=O)(=O)c1ccc(Nc2ncc3c(n2)-c2ccsc2CC3)cc1`, for which the apparent permeability coefficient (Papp) in data set [1] was determined as 0.38 ×10⁻⁶ cm/s. The compound further had a solubility in data set [2] of less than 1 µg/mL. In addition, the Papp A→B in data set [5] stood at 34 ×10⁻⁶ cm/s. Moreover, the half-maximal inhibitory concentration (IC50) stood at 0.8 µM in data set [3], 0.33 µM in the data set with LoVo and 0.79 µM in data set [4]. For the same compound, in data set [6], the apparent permeability from basolateral to apical (Papp B→A) was found to be 20.7 ×10⁻⁶ cm/s.

For `NS(=O)(=O)c1ccc(Nc2nccc(-c3ccccc3)n2)cc1`, the apparent permeability coefficient (Papp) in data set [1] came to 2.26 ×10⁻⁶ cm/s. In data set [2], this compound returned a solubility of 1 µg/mL (≈ 3.06 µM). Also, the IC50 amounted to 3.28 µM in the data set on LoVo and 20.2 µM in data set [4].

For `NS(=O)(=O)c1ccc(Nc2nccc(-c3ccsc3)n2)cc1`, the IC50 in data set [3] was found to be 1.7 µM; in the data set with LoVo, 2.62 µM; in data set [4] it was 0.18 µM.
